ED50, Ke and ID50 data for eight compounds are collected here from ChEMBL document CHEMBL3243975 (J Med Chem, 1978).

The test system of assay [1] is Mus musculus. As to the kind of experiment: Narcotic antagonist activity in sc dosed mouse assessed as inhibition of oxymorphone-induced nacrosis. The format is functional.
The species entered for assay [2] is Rattus norvegicus. As to the kind of experiment: Narcotic agonist activity in rat by writhing test. The format is functional. A general note: In writhing tests, fewer writhes than in controls are read as antinociception.
The species entered for assay [3] is Mus musculus. Put plainly: Narcotic agonist activity in mouse by writhing test. Format: functional.
Assay [4] deals with Rattus norvegicus. As to the kind of experiment: Narcotic antagonist activity in sc dosed rat assessed as inhibition of oxymorphone-induced straub tail effect. The format is functional.
Assay [5] is filed under the species Rattus norvegicus. Put plainly: Narcotic agonist activity in rat by hot plate test. Format: functional. (Thermal pain tests record how soon the animal reacts.)
Assay [6] is filed under the species Sus scrofa. As to the kind of experiment: Binding affinity to pig ileum opioid receptor. Format: tissue-based.
For assay [7], the species on record is Sus scrofa. Put plainly: Agonist activity at pig ileum opioid receptor. Format: tissue-based.

A value given as a limit tells only on which side of the number the result lay.

The ED50 is the dose at which the effect has come halfway, by size or by number of responders. With `C=CCN1CC[C@]23c4c5ccc(O)c4O[C@H]2C(=O)CC[C@@]3(O)[C@H]1C5` [NALOXONE], the ED50 in assay [1] was 0.14 mg/kg; in assay [2] it was > 100 mg/kg; in assay [3], > 100 mg/kg; in assay [4], 0.051 mg/kg.

For the compound `O=C1CC[C@@]2(O)[C@H]3Cc4ccc(O)c5c4[C@@]2(CCN3CCc2ccccc2)[C@H]1O5`, it took a dose of 0.014 mg/kg to reach the 50% effect level in assay [5] (ED50).

In the case of `O=C1CC[C@@]2(O)[C@H]3Cc4ccc(O)c5c4[C@@]2(CCN3CC2CC2)[C@H]1O5` [NALTREXONE], the ED50 in assay [1] was 0.047 mg/kg; in assay [2], 0.14 mg/kg; in assay [3], > 100 mg/kg; in assay [4], 0.023 mg/kg. In addition, the Ke in assay [6] was 0.38 nM. Besides, the ID50 in assay [7] was > 850 nM.

Take `O=C1CC[C@@]2(O)[C@H]3Cc4ccc(O)c5c4[C@@]2(CCN3CC2CCC2)[C@H]1O5`: the ED50 came out at 0.57 mg/kg in assay [1], 0.06 mg/kg in assay [2], 0.39 mg/kg in assay [3] and 0.19 mg/kg in assay [4]. The Ke in assay [6] was 3 nM. For the same compound, the ID50 in assay [7] was 60 nM.

Regarding `CC(C)=CCN1CC[C@]23c4c5ccc(O)c4O[C@H]2C(=O)CC[C@@]3(O)[C@H]1C5` [NALMEXONE], the median effective dose (ED50) amounted to 5.6 mg/kg in assay [1]; 0.74 mg/kg in assay [2]; 2 mg/kg in assay [3]; 10.7 mg/kg in assay [5]; 1.4 mg/kg in assay [4]. Besides, the Ke in assay [6] amounted to 43 nM. In addition, in assay [7], the ID50 is 400 nM.

Consider `C=CCN1CC[C@]23c4c5ccc(O)c4O[C@H]2[C@@H](O)C=C[C@H]3[C@H]1C5` [NALORPHINE], for which the median effective dose (ED50) in assay [1] worked out at 1.45 mg/kg; in assay [2], 1 mg/kg; in assay [4], 0.9 mg/kg. In assay [7], this compound had an ID50 of 24.3 nM.

For `CN1CC[C@]23c4c5ccc(O)c4O[C@H]2[C@@H](O)C=C[C@H]3[C@H]1C5` [MORPHINE], the ED50 in assay [2] is 0.26 mg/kg; in assay [3] it was 0.8 mg/kg.

With `CN1CC[C@]23c4c5ccc(O)c4O[C@H]2C(=O)CC[C@@]3(O)[C@H]1C5` [OXYMORPHONE], the ED50 in assay [2] amounted to 0.02 mg/kg; in assay [3], 0.046 mg/kg; in assay [5] it was 0.17 mg/kg. The Ke in assay [6] was found to be 11.2 nM. The ID50 in assay [7] was found to be 12.1 nM.
